Reference: US10865188B2, “Dibenzo azepine compounds and their use in the treatment of otic diseases and disorders” (Pipeline Therapeutics, Inc., priority 2015, dated 2020)
Like-named read-outs stand apart in the source and are kept apart here.

Tests used:
HES5 = experiment: Human neural stem cell assay, Hes5 gene expression (real-time PCR); assay type: cell-based; conditions: human neural stem cells, 7 point CRC, read-out: hNSC HES5 IC50
Method: (§1) Neural stem cells (NSC) were derived from embryonic stem cells using a published protocol (Yuan et al., Mar. 2, 2011, PLoS ONE, 6(3):e17540). Cells were sorted and characterized at passage 3 and were expanded. Cells were then frozen at passage 5. Cells were maintained in NSC media (DMEM/F12, N2 (1×), B27(1×) (Invitrogen), and Pen/Strep (1×) (Life Technologies) with 20 ng/ml bFGF (BD Bioscience/Corning)). On day 1, cells were plated in 96 well plates that have been previously coated with poly-ornithin and laminin, 60,000 cells/well in 100 μl of media. On day 2, spent media was removed, and 180 μl of fresh media was added to the cells. Later that same day (day 2), cells were treated with 20 μl of NSC media containing test compounds (7 point CRC). On day 3, spent media was removed and 140 μl of RLT/bME was added to the cells. RNA was extracted using the QiaCube (Qiagen®, Germantown, Md., USA) using the total RNA extraction+DNAse protocol. RNA was then reverse-transcribed to cDNA using iScript (Bio-Rad, Hercules, Calif., USA). cDNA was then used for real-time PCR analysis using iTaq Sybergreen (BioRad). Expression of Atoh1, Hes5, Hes1, Myosin7a genes was evaluated using CFX96 or CFX384 (Bio-Rad). HPRT1 was used as a reference gene. Analysis was done using Microsoft® Excel® and CBIS (ChemInnovation Software, Inc., San Diego, Calif., USA). […]

[1] = Guinea pig PK after transtympanic delivery (perilymph and cochlea, LC/MS/MS); assay type: in vivo; conditions: for concentration at 1 day / concentration at 7 day / concentration at 14 day / concentration at 3 day / concentration at 21 day / concentration at 28 day: male, Hartley, other: transtympanic, 30 μL, 30 μL transtympanic; for concentration at 1 day: Day 1, LLOQ = 0.08 μM; for concentration at 7 day: Day 7, LLOQ = 0.08 μM; for concentration at 14 day: Day 14, LLOQ = 0.08 μM; for concentration at 3 day: Day 3, LLOQ = 0.08 μM; for concentration at 21 day: Day 21, LLOQ = 0.08 μM; for concentration at 28 day: Day 28, LLOQ = 0.08 μM
Excerpt: (§2) Male Hartley guinea pigs (300-350 g) were anesthetized with ketamine and xylazine. Thirty microliters of an aqueous pharmaceutical composition of the instant embodiments was delivered transtympanically to deposit the drug to the round window membrane. Delivery was unilateral. The animals were placed in a warm chamber in a lateral recumbent position keeping the dosed ear side up until they recover from anesthesia.
At various timepoints after administration, the animals were euthanized by CO2 inhalation. Blood and CSF were collected and stored at −80° C. The animals were decapitated, the temporal bones removed and the bulla opened to expose the otic capsule. Ipsilateral and contralateral perilymph were collected from the apex using a microcapillary tube. The ipsilateral cochlea was removed from the otic capsule and stored at −80° C. All tissues collected were analyzed using LC/MS/MS for test compound concentration as follows. Analytical standards were prepared by spiking known concentrations of the test compound stock solutions into matrices such as plasma or artificial CSF. Fixed amounts of tissues collected and spiked standards were precipitated with acetonitrile containing buspirone as an internal standard. The precipitated samples were centrifuged at 4000 g for 10 minutes at 4° C. The supernatants were analyzed using LC-MS/MS. The LC-MS/MS system was set up using the AB Sciex 4000 Qtrap (AB Sciex, Framingham, Mass.) equipped with Agilent 1200 series HPLC and CTC PAL Autosampler (Agilent Technologies, Santa Clara, Calif.).
Liquid compositions described herein were evaluated using the method described in Part E of the Biological Function section provided above. The liquid compositions prepared as described in Example 5(a)-5(d) were each drawn into a 1 mL syringe. Using the filled 1 mL syringe, the liquid composition was back-filled at 5° C. into a 100 μL Hamilton syringe adapted with 28 gauge needle. The Hamilton syringe was then allowed to warm to room temperature.
as §2, with “the above liquid” for “an aqueous pharmaceutical”, “were” for “of the instant embodiments was”, “The delivery” for “Delivery”, “recovered” for “recover”
At various timepoints after administration, the animals were euthanized by CO2 inhalation. Blood and cerebrospinal fluid were collected and stored at −80° C. The animals were decapitated, the temporal bones removed and the bulla were opened to expose the otic capsule. Ipsilateral and contralateral perilymph were collected from the apex using a microcapillary tube. The ipsilateral cochlea was removed from the otic capsule and was stored at −80° C. All tissues collected were analyzed using LC/MS/MS as described in Part E of the Biological Function section above.
The concentrations of Compound I and Compound II were measured using LC/MS/MS in both the perilymph fluid and the cochlea tissue after a transtympanic injection of an instant formulation of either the crystalline form or the amorphous form at various time points. […] Concentration of the instant compounds in the perilymph and/or cochlea tissue was above the human NSC EC50 for Atoh1, an indicator that the subject compounds may be efficacious in hair cell regeneration and hearing restoration in human. […] Table 3 below lists the results for the studies using aqueous formulations of crystalline Compound I while Table 4 below lists those for aqueous formulations of crystalline Compound II. The results for aqueous formulations of crystalline Compound I are also graphically shown in FIG. 5A and FIG. 5B while the results for aqueous formulations of crystalline Compound II are graphically shown in FIG. 6A and FIG. 6B.

mice = experiment: Auditory brainstem response (ABR) hearing threshold; assay type: in vivo; conditions: formulations of Examples 3(c) and 3(d) (2% w/v crystalline, poloxamer 407)
Method: Surgery was performed on naïve mice or mice with noise or pharmacologically-damaged ears. The animals were anesthetized with isoflurane and an 8 mm retroauricular incision was made to the lower caudal edge of the pinna. The skin was retracted and the fatty tissue was blunt dissected away from where the facial nerve and muscle come together. The muscle was retracted to reveal an area in the tympanic bulla where the bone was thin. A 30 g needle was used to drill a hole in the exposed thin portion of the otic bulla. A Hamilton syringe equipped with a 32 g blunt needle was inserted into the opening of the otic bulla. The drug formulation was delivered by injection and the needle removed. Wound closure was made with tissue glue.
Naïve mice or mice at various times after either noise or pharmacological deafening were anesthetized with ketamine/xylazine/acepromazine and the auditory brainstem response was determined in both ears using a Tucker Davis (Alachua, Fla.) RZ6 apparatus. The mice were exposed to clicks or pure tones of 4, 8, 16, 24 and 32 kHz at 90-10 dB in 10 dB descending steps and the hearing threshold was determined.

Atoh1 = experiment: Human neural stem cell assay, Atoh1 gene expression (real-time PCR); assay type: cell-based; conditions: human neural stem cells, 7 point CRC, read-out: hNSC Atoh1 EC50
Method: as §1

[2] = cochlea, Amorphous form (Example 5(b)), read-out: Cochlea Average concentration
[3] = cochlea, Crystalline form (Example 5(a)), read-out: Cochlea Average concentration
[4] = perilymph, Amorphous form (Example 5(b)), read-out: perilymph Average concentration
[5] = perilymph, Crystalline form (Example 5(a)), read-out: Perilymph Average concentration

IC50 (HES5): 288 nM | concentration in the perilymph and the cochlea compared with the human NSC EC50 for Atoh1 ([1]; dosed as the crystalline form, transtympanic): above the NSC EC50 from day 1 to day 28 | concentration at 1 day [1, 2]: 211 µM | concentration at 7 day [1, 2]: 28.4 µM | concentration at 14 day [1, 2]: 0.04 µM | concentration at 1 day [1, 3]: 69 µM | concentration at 3 day [1, 3]: 25.6 µM | concentration at 7 day [1, 3]: 4.1 µM | concentration at 14 day [1, 3]: 9 µM | concentration at 21 day [1, 3]: 6.2 µM | concentration at 28 day [1, 3]: 12.8 µM | concentration at 1 day [1, 4]: 33.3 µM | concentration at 7 day [1, 4]: 14 µM | concentration at 14 day [1, 4]: 0 µM | concentration at 1 day [1, 5]: 395 µM | concentration at 3 day [1, 5]: 568 µM | concentration at 7 day [1, 5]: 18.9 µM | concentration at 14 day [1, 5]: 116 µM | concentration at 21 day [1, 5]: 18.2 µM | concentration at 28 day [1, 5]: 10.4 µM | exposure to the inner ear, crystalline formulation versus respective amorphous formulation ([1]; transtympanic, formulations of Example 5(a)-5(d)): longer exposure | EC50 (Atoh1): 625 nM
Structure (SMILES): C[C@H](OC(=O)NCC(F)(F)C(F)(F)F)C(=O)N[C@@H]1C(=O)Nc2ccccc2-c2ccccc21 [Compound I, (2,2,3,3,3-pentafluoropropyl)-carbamic acid (S)-1-((S)-6-oxo-6,7-dihydro-5H-dibenzo[b,d]azepin-7-ylcarbamoyl) ethyl ester]
concentration in the perilymph and the cochlea compared with the human NSC EC50 for Atoh1 ([1]; dosed as the amorphous form, transtympanic): above the human NSC EC50 for Atoh1 at 1 day and 7 days | ABR Threshold Improvement (mice; 16 kHz): 7 dB | ABR Threshold Improvement (mice; 24 kHz): 10 dB | ABR Threshold Improvement (mice; 32 kHz): 8 dB
